In the NIST ThermoML archive (doi:10.1021/je8001305):
± gives the expanded uncertainty stated by the source.

Assay: xn = mol fraction of the nth substance listed
Conditions: Liquid, Vibrating tube method

CC(C)O [propan-2-ol] + O
Conditions	mass density [kg/m3]
300.08 K, 7 kPa, x1 = 0.2483	895.51 ± 0.9
300.08 K, 7.3 kPa, x1 = 0.7258	805.5 ± 0.81
300.08 K, 88.2 kPa, x1 = 0.7258	805.57 ± 0.81
300.08 K, 146.2 kPa, x1 = 0.2483	895.5 ± 0.9
300.08 K, 303 kPa, x1 = 0.7258	805.78 ± 0.82
300.08 K, 381.3 kPa, x1 = 0.2483	895.67 ± 0.9
300.08 K, 565.1 kPa, x1 = 0.7258	806 ± 0.82
300.08 K, 764.9 kPa, x1 = 0.2483	895.89 ± 0.9
300.08 K, 1101.1 kPa, x1 = 0.2483	896.11 ± 0.9
300.08 K, 1126.2 kPa, x1 = 0.7258	806.42 ± 0.82
300.08 K, 1556.8 kPa, x1 = 0.2483	896.32 ± 0.9
300.08 K, 1702.5 kPa, x1 = 0.7258	806.92 ± 0.82
300.08 K, 1921.9 kPa, x1 = 0.2483	896.56 ± 0.91
300.08 K, 2181.5 kPa, x1 = 0.2483	896.86 ± 0.91
300.08 K, 2239.8 kPa, x1 = 0.7258	807.33 ± 0.82
300.08 K, 2610.1 kPa, x1 = 0.2483	897.09 ± 0.91
300.08 K, 2722.7 kPa, x1 = 0.7258	807.73 ± 0.82
300.08 K, 3080.5 kPa, x1 = 0.2483	897.32 ± 0.91
300.08 K, 3196 kPa, x1 = 0.7258	808.11 ± 0.82
300.08 K, 3522.3 kPa, x1 = 0.2483	897.58 ± 0.91
300.08 K, 3715.6 kPa, x1 = 0.7258	808.53 ± 0.82
300.08 K, 4082.6 kPa, x1 = 0.2483	897.87 ± 0.91
300.08 K, 4231.5 kPa, x1 = 0.7258	808.93 ± 0.82
300.08 K, 4587.1 kPa, x1 = 0.7258	809.31 ± 0.82
300.08 K, 4663.3 kPa, x1 = 0.2483	898.17 ± 0.91
300.08 K, 5151.3 kPa, x1 = 0.2483	898.42 ± 0.91
300.08 K, 5314.6 kPa, x1 = 0.7258	809.85 ± 0.82
300.08 K, 5562.5 kPa, x1 = 0.2483	898.65 ± 0.91
300.08 K, 5793.2 kPa, x1 = 0.7258	810.24 ± 0.82
300.08 K, 5980.5 kPa, x1 = 0.2483	898.85 ± 0.91
300.08 K, 6301.2 kPa, x1 = 0.7258	810.63 ± 0.83
300.08 K, 6414.3 kPa, x1 = 0.2483	899.11 ± 0.91
300.08 K, 6754.8 kPa, x1 = 0.2483	899.33 ± 0.91
300.08 K, 6783.9 kPa, x1 = 0.7258	811.02 ± 0.83
300.08 K, 7246.8 kPa, x1 = 0.2483	899.56 ± 0.91
300.08 K, 7297.6 kPa, x1 = 0.7258	811.43 ± 0.83
300.08 K, 7636.7 kPa, x1 = 0.2483	899.78 ± 0.91
300.08 K, 7804.4 kPa, x1 = 0.7258	811.81 ± 0.83
300.08 K, 8131.6 kPa, x1 = 0.2483	900.04 ± 0.91
300.08 K, 8342.2 kPa, x1 = 0.7258	812.23 ± 0.83
300.08 K, 8662.8 kPa, x1 = 0.2483	900.28 ± 0.91
300.08 K, 8818 kPa, x1 = 0.7258	812.6 ± 0.83
300.08 K, 9087.3 kPa, x1 = 0.2483	900.54 ± 0.91
300.08 K, 9330.1 kPa, x1 = 0.7258	813 ± 0.83
300.08 K, 9562.3 kPa, x1 = 0.2483	900.79 ± 0.91
300.08 K, 9918.9 kPa, x1 = 0.7258	813.45 ± 0.83
300.1 K, 7.2 kPa, x1 = 0.4939	837.98 ± 0.85
300.1 K, 233.4 kPa, x1 = 0.4939	838.18 ± 0.85
300.1 K, 503 kPa, x1 = 0.4939	838.33 ± 0.85
300.1 K, 946.6 kPa, x1 = 0.4939	838.71 ± 0.85
300.1 K, 1545.3 kPa, x1 = 0.4939	839.06 ± 0.85
300.1 K, 1902.2 kPa, x1 = 0.4939	839.36 ± 0.85
300.1 K, 2303.5 kPa, x1 = 0.4939	839.65 ± 0.85
300.1 K, 2724.6 kPa, x1 = 0.4939	839.96 ± 0.85
300.1 K, 3136.5 kPa, x1 = 0.4939	840.26 ± 0.85
300.1 K, 3567.9 kPa, x1 = 0.4939	840.56 ± 0.85
300.1 K, 3995.8 kPa, x1 = 0.4939	840.87 ± 0.85
300.1 K, 4436.2 kPa, x1 = 0.4939	841.18 ± 0.85
300.1 K, 4835.5 kPa, x1 = 0.4939	841.48 ± 0.85
300.1 K, 5262 kPa, x1 = 0.4939	841.77 ± 0.85
300.1 K, 5699.8 kPa, x1 = 0.4939	842.07 ± 0.85
300.1 K, 6161 kPa, x1 = 0.4939	842.39 ± 0.86
300.1 K, 6588.4 kPa, x1 = 0.4939	842.68 ± 0.86
300.1 K, 7053 kPa, x1 = 0.4939	843 ± 0.86
300.1 K, 7437.9 kPa, x1 = 0.4939	843.28 ± 0.86
300.1 K, 7862 kPa, x1 = 0.4939	843.57 ± 0.86
300.1 K, 8248.5 kPa, x1 = 0.4939	843.86 ± 0.86
300.1 K, 8704.4 kPa, x1 = 0.4939	844.15 ± 0.86
300.1 K, 9260.6 kPa, x1 = 0.4939	844.49 ± 0.86
300.1 K, 9966.4 kPa, x1 = 0.4939	845.04 ± 0.86
325.09 K, 28.6 kPa, x1 = 0.4939	814.94 ± 0.83
325.09 K, 65.4 kPa, x1 = 0.4939	814.96 ± 0.83
325.09 K, 303 kPa, x1 = 0.4939	815.2 ± 0.83
325.09 K, 645.3 kPa, x1 = 0.4939	815.47 ± 0.83
325.09 K, 1004.8 kPa, x1 = 0.4939	815.8 ± 0.83
325.09 K, 1391.9 kPa, x1 = 0.4939	816.13 ± 0.83
325.09 K, 1788.1 kPa, x1 = 0.4939	816.48 ± 0.83
325.09 K, 2242 kPa, x1 = 0.4939	816.83 ± 0.83
325.09 K, 2881.1 kPa, x1 = 0.4939	817.33 ± 0.83
325.09 K, 3904.6 kPa, x1 = 0.4939	818.19 ± 0.83
325.09 K, 4242.1 kPa, x1 = 0.4939	818.51 ± 0.83
325.09 K, 4784.4 kPa, x1 = 0.4939	818.94 ± 0.83
325.09 K, 5116.8 kPa, x1 = 0.4939	819.26 ± 0.83
325.09 K, 5507.3 kPa, x1 = 0.4939	819.61 ± 0.83
325.09 K, 5912.2 kPa, x1 = 0.4939	819.93 ± 0.83
325.09 K, 6322.1 kPa, x1 = 0.4939	820.28 ± 0.84
325.09 K, 6773 kPa, x1 = 0.4939	820.6 ± 0.84
325.09 K, 7214.5 kPa, x1 = 0.4939	820.97 ± 0.84
325.09 K, 7613.3 kPa, x1 = 0.4939	821.31 ± 0.84
325.09 K, 8080.5 kPa, x1 = 0.4939	821.7 ± 0.84
325.09 K, 8603.1 kPa, x1 = 0.4939	822.11 ± 0.84
325.09 K, 9197.3 kPa, x1 = 0.4939	822.51 ± 0.84
325.09 K, 9561.4 kPa, x1 = 0.4939	822.86 ± 0.84
325.1 K, 27.3 kPa, x1 = 0.2483	874.07 ± 0.88
325.1 K, 72.6 kPa, x1 = 0.2483	874.13 ± 0.88
325.1 K, 410.3 kPa, x1 = 0.2483	874.37 ± 0.88
325.1 K, 962.1 kPa, x1 = 0.2483	874.71 ± 0.88
325.1 K, 1343 kPa, x1 = 0.2483	875.01 ± 0.88
325.1 K, 1859.5 kPa, x1 = 0.2483	875.37 ± 0.89
325.1 K, 2332.6 kPa, x1 = 0.2483	875.6 ± 0.89
325.1 K, 2826.4 kPa, x1 = 0.2483	875.91 ± 0.89
325.1 K, 3319.4 kPa, x1 = 0.2483	876.24 ± 0.89
325.1 K, 3776.3 kPa, x1 = 0.2483	876.52 ± 0.89
325.1 K, 4236.7 kPa, x1 = 0.2483	876.83 ± 0.89
